Test system: NocG
Test: LC-HRMS, formation of beta-ketoacid […]
Assay type: biochemical, Nodularia sp. LEGE 06071
Conditions: read-out: apparent Km; variable hexanoyl-SNAC with octanoyl-SNAC as co-substrate

Km: 135 ± 29 µM
Compound: CCCCCC(=O)SCCNC(C)=O [hexanoyl-SNAC]

— PMC9486936 (ACS Chemical Biology, 2022)
